Values joined by “and” are separate entries in the source; they are usually repeats but may differ in a detail not shown here. Equal values may be shown once. Toxic doses and inconclusive results are not listed. How the source made its calls: active means survival T/C of 150% or more; inactive means T/C below 125% in these data.
Tested on: CD2F1 mice, L1210 leukemia ip, survival T/C
Experiment: NCI In Vivo Anticancer Drug Screen. Data for tumor model L1210 Leukemia (intraperitoneal) in CD2F1 (CDF1) mice
Details: higher = longer survival
In short: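 Tumor-bearing mice (transplanted tumor) were split into treated and vehicle control groups, and the measured endpoint of each treated group was divided by that of its vehicle controls.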

[1] = endpoint: mean survival time, dose: 100.0 mg/kg/injection, schedule: Q01DX009 (ip), vehicle: saline with Tween-80
[2] = endpoint: mean survival time, dose: 200.0 mg/kg/injection, schedule: Q01DX009 (ip), vehicle: saline with Tween-80
[3] = endpoint: mean survival time, dose: 400.0 mg/kg/injection, schedule: Q01DX009 (ip), vehicle: saline with Tween-80
[4] = endpoint: mean survival time, dose: 100.0 mg/kg/injection, schedule: Q01DX001 (ip), vehicle: saline with Tween-80
[5] = endpoint: mean survival time, dose: 100.0 mg/kg/injection, schedule: Q04DX002 (ip), vehicle: saline with Tween-80
[6] = endpoint: mean survival time, dose: 200.0 mg/kg/injection, schedule: Q01DX001 (ip), vehicle: saline with Tween-80
[7] = endpoint: mean survival time, dose: 200.0 mg/kg/injection, schedule: Q04DX002 (ip), vehicle: saline with Tween-80
[8] = endpoint: mean survival time, dose: 400.0 mg/kg/injection, schedule: Q01DX001 (ip), vehicle: saline with Tween-80
[9] = endpoint: mean survival time, dose: 400.0 mg/kg/injection, schedule: Q04DX002 (ip), vehicle: saline with Tween-80
[10] = endpoint: mean survival time, dose: 50.0 mg/kg/injection, schedule: Q01DX009 (ip), vehicle: Klucel (hydroxypropylcellulose) (HPC)
[11] = endpoint: mean survival time, dose: 100.0 mg/kg/injection, schedule: Q01DX009 (ip), vehicle: Klucel (hydroxypropylcellulose) (HPC)
[12] = endpoint: mean survival time, dose: 200.0 mg/kg/injection, schedule: Q01DX009 (ip), vehicle: Klucel (hydroxypropylcellulose) (HPC)
[13] = endpoint: mean survival time, dose: 25.0 mg/kg/injection, schedule: Q01DX009 (ip), vehicle: saline with Tween-80
[14] = endpoint: mean survival time, dose: 50.0 mg/kg/injection, schedule: Q01DX009 (ip), vehicle: saline with Tween-80
[15] = endpoint: mean survival time, dose: 100.0 mg/kg/injection, schedule: Q04DX003 (ip), vehicle: saline with Tween-80
[16] = endpoint: mean survival time, dose: 200.0 mg/kg/injection, schedule: Q04DX003 (ip), vehicle: saline with Tween-80

Measured: T/C

CC/C(=C(\c1ccccc1)c1ccc(OCCN(C)C)cc1)c1ccccc1
inactive: endpoint: median survival time, dose: 3.12 mg/kg/injection, schedule: Q01DX009 (ip), vehicle: suspension in saline 101 % of control | endpoint: median survival time, dose: 6.25 mg/kg/injection, schedule: Q01DX009 (ip), vehicle: suspension in saline 101 % of control | endpoint: median survival time, dose: 12.5 mg/kg/injection, schedule: Q01DX009 (ip), vehicle: suspension in saline 100 % of control | endpoint: median survival time, dose: 25.0 mg/kg/injection, schedule: Q01DX009 (ip), vehicle: saline with Tween-80 100 % of control | endpoint: median survival time, dose: 25.0 mg/kg/injection, schedule: Q01DX009 (ip), vehicle: suspension in saline 97 % of control | endpoint: median survival time, dose: 50.0 mg/kg/injection, schedule: Q01DX009 (ip), vehicle: saline with Tween-80 107 % of control

COc1ccc(C2N(C)CCCN2C)c(OC)c1
inactive: endpoint: mean survival time, dose: 6.25 mg/kg/injection, schedule: Q01DX009 (ip), vehicle: saline sonified 103 % of control | endpoint: mean survival time, dose: 6.25 mg/kg/injection, schedule: Q04DX003 (ip), vehicle: saline sonified 101 % of control | endpoint: mean survival time, dose: 12.5 mg/kg/injection, schedule: Q01DX009 (ip), vehicle: saline sonified 103 % of control | endpoint: mean survival time, dose: 12.5 mg/kg/injection, schedule: Q04DX003 (ip), vehicle: saline sonified 108 % of control | endpoint: mean survival time, dose: 25.0 mg/kg/injection, schedule: Q01DX009 (ip), vehicle: saline sonified 98 % of control | endpoint: mean survival time, dose: 25.0 mg/kg/injection, schedule: Q04DX003 (ip), vehicle: saline sonified 100 % of control

Nc1cccc2c1C(=O)c1cccc(Cl)c1C2=O
inactive: [1] 95 % of control | [2] 106 % of control | [3] 109 % of control

C[N+](C)(C)C(Cc1c[nH]c2ccccc12)C(=O)O (configuration not stated)
inactive: endpoint: mean survival time, dose: 100.0 mg/kg/injection, schedule: Q01DX001 (ip), vehicle: saline 91 % of control | endpoint: mean survival time, dose: 100.0 mg/kg/injection, schedule: Q04DX003 (ip), vehicle: saline 96 % of control and 100 % of control | endpoint: mean survival time, dose: 200.0 mg/kg/injection, schedule: Q01DX001 (ip), vehicle: saline 101 % of control | endpoint: mean survival time, dose: 200.0 mg/kg/injection, schedule: Q04DX003 (ip), vehicle: saline 105 % of control and 97 % of control | endpoint: mean survival time, dose: 400.0 mg/kg/injection, schedule: Q01DX001 (ip), vehicle: saline 95 % of control | endpoint: mean survival time, dose: 400.0 mg/kg/injection, schedule: Q04DX003 (ip), vehicle: saline 94 % of control and 95 % of control

O=c1cc(Nc2cccc(Cl)c2Cl)[nH]c(=O)[nH]1
inactive: [4] 93 % of control and 97 % of control | [5] 118 % of control and 91 % of control | [6] 97 % of control and 98 % of control | [7] 90 % of control and 92 % of control | [8] 95 % of control and 97 % of control | [9] 91 % of control and 100 % of control

O=C(/C=C/c1ccc(Cl)cc1)/C=C/c1ccc(Cl)cc1
inactive: [10] 94 % of control | [11] 98 % of control | [12] 94 % of control

O=[N+]([O-])c1ccc(-n2[nH]nnc2=S)cc1
inactive: endpoint: mean survival time, dose: 12.5 mg/kg/injection, schedule: Q01DX009 (ip), vehicle: saline with Tween-80 95 % of control | [13] 93 % of control | [14] 102 % of control | endpoint: mean survival time, dose: 100.0 mg/kg/injection, schedule: Q01DX009 (ip), vehicle: acetone 95 % of control | [1] 96 % of control | endpoint: mean survival time, dose: 200.0 mg/kg/injection, schedule: Q01DX009 (ip), vehicle: acetone 94 % of control | [2] 96 % of control | [3] 93 % of control

O=CC(O)CO (configuration not stated)
inactive: endpoint: median survival time, dose: 129.6 mg/kg/injection, schedule: Q ##X015 (sc), vehicle: saline 109 % of control | endpoint: median survival time, dose: 129.6 mg/kg/injection, schedule: Q## X015 (sc), vehicle: saline 112 % of control | endpoint: median survival time, dose: 216.0 mg/kg/injection, schedule: Q ##X015 (sc), vehicle: saline 108 % of control | endpoint: median survival time, dose: 216.0 mg/kg/injection, schedule: Q## X015 (sc), vehicle: saline 112 % of control | endpoint: median survival time, dose: 360.0 mg/kg/injection, schedule: Q ##X015 (sc), vehicle: saline 119 % of control | endpoint: median survival time, dose: 360.0 mg/kg/injection, schedule: Q## X015 (sc), vehicle: saline 118 % of control | endpoint: median survival time, dose: 600.0 mg/kg/injection, schedule: Q ##X015 (sc), vehicle: saline 110 % of control | endpoint: median survival time, dose: 600.0 mg/kg/injection, schedule: Q## X015 (sc), vehicle: saline 112 % of control

CC([NH-])C(=O)O.[Cl][Pt][Cl] (configuration not stated)
inactive: endpoint: mean survival time, dose: 25.0 mg/kg/injection, schedule: Q04DX003 (ip), vehicle: saline 121 % of control | endpoint: mean survival time, dose: 50.0 mg/kg/injection, schedule: Q04DX003 (ip), vehicle: saline 110 % of control

CCOC(C(=O)OC1CCN(C)CC1)(c1ccccc1)c1ccccc1
inactive: [13] 98 % of control | [14] 98 % of control | [1] 93 % of control

C=C1C(=O)O[C@@H]2[C@H]1CC[C@H](C)[C@]1(O)CCC(=O)[C@@]21C
inactive: [1] 98 % of control | [2] 101 % of control | [3] 110 % of control

O/N=C/c1ccccn1
inactive: endpoint: mean survival time, dose: 75.0 mg/kg/injection, schedule: Q04DX003 (ip), vehicle: saline with Tween-80 96 % of control | endpoint: mean survival time, dose: 150.0 mg/kg/injection, schedule: Q04DX003 (ip), vehicle: saline with Tween-80 104 % of control | endpoint: mean survival time, dose: 300.0 mg/kg/injection, schedule: Q04DX003 (ip), vehicle: saline with Tween-80 98 % of control

COc1ccc(NC(=O)Nc2c(C)n(C)n(-c3ccccc3)c2=O)c(Cl)c1
inactive: [10] 95 % of control | [11] 95 % of control | endpoint: mean survival time, dose: 100.0 mg/kg/injection, schedule: Q04DX003 (ip), vehicle: Klucel (hydroxypropylcellulose) (HPC) 104 % of control | [12] 95 % of control | endpoint: mean survival time, dose: 200.0 mg/kg/injection, schedule: Q04DX003 (ip), vehicle: Klucel (hydroxypropylcellulose) (HPC) 104 % of control | endpoint: mean survival time, dose: 400.0 mg/kg/injection, schedule: Q04DX003 (ip), vehicle: Klucel (hydroxypropylcellulose) (HPC) 104 % of control

C#CC(CC)OC(=O)c1cc([N+](=O)[O-])cc([N+](=O)[O-])c1 (configuration not stated)
inactive: [4] 87 % of control | [5] 93 % of control | [6] 94 % of control | [7] 93 % of control | [8] 90 % of control | [9] 93 % of control

Cc1cc(=O)oc2cc(O)ccc12
inactive: [4] 94 % of control | [6] 98 % of control | [8] 87 % of control

Cc1cn(C2CC(O)C(CO)O2)c(=O)nc1N1CCCCCCC1 (configuration not stated)
inactive: endpoint: median survival time, dose: 12.5 mg/kg/injection, schedule: Q01DX005 (ip), vehicle: water 102 % of control | endpoint: median survival time, dose: 25.0 mg/kg/injection, schedule: Q01DX005 (ip), vehicle: water 102 % of control | endpoint: median survival time, dose: 50.0 mg/kg/injection, schedule: Q01DX005 (ip), vehicle: water 102 % of control | endpoint: median survival time, dose: 100.0 mg/kg/injection, schedule: Q01DX005 (ip), vehicle: water 102 % of control | endpoint: median survival time, dose: 200.0 mg/kg/injection, schedule: Q01DX005 (ip), vehicle: water 103 % of control

CCC1(O)C(=O)OCc2c1cc1n(c2=O)Cc2cc3ccc([N+](=O)[O-])cc3nc2-1 (configuration not stated)
inactive: endpoint: median survival time, dose: 10.0 mg/kg/injection, schedule: Q04DX002 (ip), vehicle: saline with Tween-80 114 % of control

N#C/C(=C\c1ccc([N+](=O)[O-])o1)[N+](=O)[O-]
inactive: endpoint: mean survival time, dose: 25.0 mg/kg/injection, schedule: Q04DX003 (ip), vehicle: saline with Tween-80 104 % of control | endpoint: mean survival time, dose: 50.0 mg/kg/injection, schedule: Q04DX003 (ip), vehicle: saline with Tween-80 94 % of control | [15] 97 % of control

O=C(OCC1OCOC(COC(=O)c2ccccc2)C(O)C1O)c1ccccc1 (configuration not stated)
inactive: [15] 97 % of control | [16] 97 % of control | endpoint: mean survival time, dose: 400.0 mg/kg/injection, schedule: Q04DX003 (ip), vehicle: saline with Tween-80 86 % of control

OCC1OC(n2cnc3c(NO)ncnc32)C(O)C1O (configuration not stated)
inactive: endpoint: mean survival time, dose: 12.5 mg/kg/injection, schedule: Q01DX009 (ip), vehicle: Klucel (hydroxypropylcellulose) (HPC) 87 % of control and 103 % of control | endpoint: mean survival time, dose: 25.0 mg/kg/injection, schedule: Q01DX009 (ip), vehicle: Klucel (hydroxypropylcellulose) (HPC) 88 % of control and 104 % of control | [10] 92 % of control and 104 % of control | [11] 92 % of control and 104 % of control | [12] 92 % of control and 104 % of control | endpoint: mean survival time, dose: 400.0 mg/kg/injection, schedule: Q01DX009 (ip), vehicle: Klucel (hydroxypropylcellulose) (HPC) 95 % of control and 107 % of control

CCN(C(=O)Nc1ccc(OC)cc1)c1ccccc1
inactive: [15] 98 % of control | [16] 95 % of control

From PubChem BioAssay AID256 (DTP/NCI, 2004)
